“Also recorded” adds a separate entry of the source.
Tests used:
[1] = test system: human colorectal cell lines (HCT-116, HT-29, KM12C); assay: Cytokine, chemokine and growth factor profile of tumor cell culture supernatant (Luminex 200); assay type: cell-based
Method: (§1) Collection of cell culture supernatants used in cytokine measurements. Cells were plated at 3.5×10^4 cells in a 48-well plate (Thermo Fisher Scientific, Waltham, MA, USA) in complete medium and incubated at 37° C. with 5% CO2. At twenty-four hours after plating, almost all the tumor cells were adherent to the bottom of the flask and the complete medium was replaced with drug-containing medium. Subsequently, the culture supernatants were collected after forty-eight hours of incubation and were frozen at −80° C. until the measurement of cytokines was performed. The day of analysis, samples were thawed and centrifuged to remove cellular debris.
Human cytokine profiling. Human cell line culture supernatants were analyzed using an R&D systems Human Premixed Multi-Analyte Kit (R&D Systems, Inc., Minneapolis, MN, USA) and a Luminex 200 Instrument (LX200-XPON-RUO, Luminex Corporation, Austin, TX, USA) according to the manufacturer's instructions. Sample levels of TNF-α, 4-1BB/TNFRSF9/CD137, IL-8/CXCL8, Ferritin, IFN-β, IL-10, CCL2/JE/MCP-1, VEGF, CXCL13/BLC/BCA-1, IFN-γ, CCL20/MIP-3 α, CCL3/MIP-1 α, CCL22/MDC, CCL4/MIP-1 β, Fas Ligand/TNFSF6, IL-17/IL-17A, IL-2, BAFF/BLyS/TNFSF13B, GM-CSF, CXCLS/ENA-78, TRANCE/TNFSF11/RANK L, CXCL9/MIG, G-CSF, IFN-γ R1/CD119, VEGFR3/Flt-4, C-Reactive Protein/CRP, CXCL11/I-TAC, IL-21, CXCL14/BRAK, IL-6, Fas/TNFRSF6/CD95, TRAIL R3/TNFRSF10C, IL-4, CCL5/RANTES, PD-L1/B7-H1, CCL7/MCP-3/MARC, Chitinase 3-like 1, CXCL10/IP-10/CRG-2, IL-1β/IL-1F2, IL-7, Prolactin, CCL8/MCP-2, TRAIL R2/TNFRSF10B, M-CSF, IL-15, Granzyme B, IFN-α, TREM-1, IL-12/IL-23 p40, TRAIL/TNFSF10, CCL11/Eotaxin, and IL-18/IL-1F4. Sample values are reported in picograms per milliliter (pg/mL).
Cells were treated with 9-ING-41, a selective and potent small molecule inhibitor of GSK-3β, at doses up to 100 μM for seventy-two hours to determine IC10, IC30, IC50, and IC70. Cytokine, chemokine, and growth factor levels were analyzed in the tumor cell culture supernatants after treatment at IC10, IC30, IC50, and IC70 for forty-eight hours using a Luminex 200 multiplexing instrument.

NK-92 cells = assay: Cytokine profile of immune cell culture supernatant, NK-92; assay type: cell-based, Human; details: 1 μM, 48 hours
Method: as §1
Human cytokine profiling. Human cell line culture supernatants were analyzed using an R&D systems Human Premixed Multi-Analyte Kit (R&D Systems, Inc., Minneapolis, MN, USA) and a Luminex 200 Instrument (LX200-XPON-RUO, Luminex Corporation, Austin, TX, USA) according to the manufacturer's instructions. […]
9-ING-41 increases secreted cytotoxic proteins IFN-v, Granzyme B, and TRAIL in immune cells. […] Here, the inventors determined how 9-ING-41 treatment impacts the immune cell cytokinome. […]

[2] = test system: HCT-116 colorectal cancer cells; assay: Western blot analysis, HCT-116; assay type: cell-based, Human
Method: Western blot analysis. Cells were plated in a 6-well plate and incubated overnight before the spent media was replaced with drugged media. Drug treatment lasted for indicated durations. Protein was extracted using radioimmunoprecipitation (RIPA) assay buffer (Cat #R0278, Sigma-Aldrich, St. Louis, MO) containing cOmplete™ Mini, EDTA-free Protease Inhibitor Cocktail (Cat #4693159001, Roche, Basel, Switzerland). Denaturing sample buffer was added, samples were boiled at 95 degrees for 10 minutes. An equal amount of protein lysate was electrophoresed through NuPAGE™ 4 to 12%, Bis-Tris, 1.5 mm, Mini Protein Gels (Invitrogen, Waltham, MA, USA) then transferred to PVDF membranes. The PVDF membrane was blocked with 5% non-fat milk (Sigma-Aldrich, St. Louis, MO, USA) in 1× TTBS. Primary antibodies were incubated with the transferred PVDF membrane in blocking buffer at 4° C. overnight. Secondary antibodies used included goat anti-rabbit IgG (H+L) secondary antibody, HRP (Cat #31460, Invitrogen, Waltham, MA, USA) and goat anti-mouse IgG (H+L) secondary antibody, HRP (Cat #31430, Invitrogen, Waltham, MA, USA). Signal was detected using a Syngene Imaging System.
9-ING-41 treatment decreases survival factor expression while increasing PD-L1 levels in colorectal cancer cell lines. To elucidate the mechanism behind the differential effects of 9-ING-41 on either colorectal cancer or immune cells in co-culture and cytokine profiling assays, the inventors performed Western blot analyses on tumor and immune cells treated with 9-ING-41 over a 72-hour time course.
Treating cells from colorectal cancer cell lines with 1 μM 9-ING-41 decreases Surivin, NF-κB p65, and IκBα while increasing PD-L1 levels in, 9-ING-41 treatment of immune cells increases NIK. Western blot analysis of HCT-116 and HT-29 colorectal cancer cells for expression of indicated proteins after increasing durations of 9-ING-41 treatment (0-72 hours). Western blot analysis of TALL-104 T cells for expression of indicated proteins after increasing durations of 9-ING-41 treatment (0-72 hours). Analysis of Mcl-1 expression in HCT-116 colorectal cancer cells and NK-92 natural killer cells after increasing durations of 9-ING-41 treatment.

[3] = test system: prostate cancer cell lines; details: cited from earlier work
advanced malignancies = details: cited from earlier work
CT-26 = assay: Syngeneic murine colon carcinoma BALB/c model with MSS cell line CT-26, survival and response; details: mouse, in vivo
Method: In vivo studies. […] Six to seven weeks old male BALB/c mice were purchased from Taconic. […] 100 μL was injected subcutaneously into the rear flanks. Once tumor volume reached at least 100 mm3, mice were randomly assigned to one of four groups (three mice/group): vehicle, ONC212, 2-DG, combination of ONC212 p2-DG. ONC212 was delivered by oral gavage at the dosage of 50 mg/kg in a solution of 70% phosphate-buffered serum, 10% DMSO, and 20% Kolliphor EL (Sigma-Aldrich, catalog no. C5135), three times per week. The treatment continued until mice developed signs of toxicity or discomfort from excessive tumor growth. Mice were weighed once a week to monitor signs of drug toxicity. The length (L) and width (VV) of the masses were measured three times per week with a digital caliper. The tumor volume was calculated applying the formula: 0.5LW2.
To evaluate the potential for 9-ING-41 to increase efficacy of immune checkpoint blockade, the inventors used a syngeneic murine colon carcinoma BALB/c murine model with a microsatellite stable (MSS) cell line CT-26.

## Cn1cc(C2=C(c3coc4ccc(F)cc34)C(=O)NC2=O)c2cc3c(cc21)OCO3 [9-ING-41]
[1]; colorectal cancer cell lines, regression slope analysis, 48 hours
  shed PD-L1: decreases
[1]; increasing doses (IC10-IC70), 48 hours
  overall cytokine levels: decreasing trend
[1]; increasing doses, 48 hours, supernatant
  VEGF: most prominently decreased
[1]; increasing doses, supernatant
  expression of chemokine CXCL14 (BRAK): increase
[1]; supernatant
  macrophage colony-stimulating factor (M-CSF): decrease
NK-92 cells
  IFN-γ and TRAIL: increases
  concentration of secreted granzyme B: decreases
[2]; 1 μM, 0-72 hours
  IKKR: No changes
[2]; 1 μM, by the 72-hour timepoint
  Survivin, NF-κB-inducing kinase (NIK), NF-κB, IKBα, pIKBα, and Bcl-2: decreases
[2]; 1 μM, until the 48-hour timepoint
  cPARP: little to no cPARP
[2]; as the treatment duration increased
  PD-L1 expression: increases
[2]; by the 24-hour timepoint
  Mcl-1 protein expression: marked decreases
[3]
  expression of PD-L1: regulated the expression of PD-L1
Advanced malignancies; a patient with BRAF V600E metastatic melanoma, previously treated
  clinical response: complete response
Advanced malignancies; even in patients with extensive prior cytotoxic therapy
  increased infection or opportunistic/unusual infections: no evidence of increased infection
Advanced malignancies; monotherapy and combination with standard chemotherapy, NCT03678883
  attributable Grade 3 or 4 serious adverse events: without attributable Grade 3 or 4 serious adverse events
Advanced malignancies; patients
  myelosuppression: not associated with myelosuppression of any degree
Advanced malignancies; preliminary results from ongoing clinical trials
  safety profile: excellent safety profile devoid of myelosuppressive and immunosuppressive effects
CT-26
  survival compared to control group: statistically significant improved survival; also recorded: prolonged the survival

From patent US20240009170A1, “INHIBITION OF GLYCOGEN SYNTHASE KINASE-3 (GSK-3)” (Brown University, priority 2020, published 2024)
